In patent US20140005103A1, “SULFONAMIDE DERIVATIVES AND METHODS OF USE THEREOF FOR IMPROVING THE PHARMACOKINETICS OF A DRUG” (Merck, Sharp & Dohme Corp., priority 2012, published 2014):
pIC50: −log10 of the molar value.

Legend:
[1] = target: CYP3A4 (Homo sapiens, UniProt P08684); test: IC50 vs CYP3A by inhibition of lopinavir metabolism in human liver microsomes; format: biochemical; conditions: pH 7.4, human liver microsomes, 1.5 μM lopinavir, 8 min at 37° C., test concentrations 0.098-100 nM, read-out: 3A4(LPV)
Experimental: Determination of IC50 vs CYP3A by Measurement of Inhibition of Lopinavir Metabolism
This assay was performed in a standard 96-well plate design. IC50 values were calculated from the percent inhibition observed for each test compound at 6 concentrations (for example, 0.098, 0.391, 1.56, 6.25, 25 and 100 nM). The incubation substrate mix contains 1.5 μM lopinavir, 0.01 mg/mL protein human liver microsomes (BD Gentest), 1 mM NAPDH, 3.3 mM MgCl2 and 100 mM potassium phosphate buffer (pH 7.4). The production of the sum of three hydroxylated metabolites (M2: 6-hydroxy lopinavir, M3: 4-hydroxy lopinavir, M4: 4-hydroxy lopinavir (epimer of M3), Kumar et al., 1999) was determined after incubation for 8 min at 37° C. Quantitation of the metabolite peak area ratio against an internal standard (tolbutamide) was determined by LC/MS/MS analysis following acetonitrile treatment of the incubations.
(§1) Samples were analyzed in the MRM mode with a SCIEX API-4000 mass spectrometer (Applied Biosystems, Foster City, Calif.), with a Shimadzu LC-20 AD pump (Shimadzu corporation, Kyoto, JP) and a CTC PAL autosampler (Agilent Technologies, Switzerland). A Phenomenex, Luna, 5 μm, 100 A, 2.00×30 mm HPLC column was used for the separation. The mobile phases were: (A) 0.1% formic acid in water and (B) 0.1% formic acid in acetonitrile. The binary gradient was as follows.
(§2) The peak area ratio of the analyte to the internal standard was used to quantify the metabolite. The values of peak area ratios in the presence of test compound were compared to those of maximum or minimum controls and were expressed as % inhibition by interpolating between the maximum and minimum peak area ratios. Incubations with no inhibitor were defined as the maxima and with 5 μM ketoconazole were defined as the minima
(§3) The following equation was used to calculate the % inhibition:
(§4) [1−[(X−Low control)/(High control−Low control)]]*100
(§5) For the IC50 calculation, SigmaPlot was used to plot the mean % inhibition versus the test compound concentrations and for non-linear regression analysis of the data. Depending on the range of data points defining the inhibition curve, the data may have been fit to the 4-parameter logistic equation.

[2] = target: T1, CYP2C9 (Homo sapiens, UniProt P11712); test: Cocktail CYP assay, diclofenac 4'-hydroxylation; format: in vitro ADME; conditions: human liver microsomes, 5 μM diclofenac; test concentrations up to 10 μM
T1 construct: 0.1 mg/mL protein human liver microsomes (BD Gentest); tissue BD Gentest; host or cells: human liver microsomes
Experimental: (§6) Determination of IC50 in a Cocktail Assay for CYPs 1A2, 2C9, 2C19, 2D6 and 3A4
(§7) This assay was performed in a standard 96-well plate design. IC50 values were calculated from the percent inhibition observed for each test compound at 6 concentrations (for example, 0.0032, 0.016, 0.08, 0.4, 2 and 10 μM). The incubation substrate mix contains 10 μM phenacetin (1A2), 5 μM diclofenac (2C9), 30 μM mephenyloin (2C19), 5 μM dextromethorphan (2D6) and 2 μM midazolam (3A4), 0.1 mg/mL protein human liver microsomes (BD Gentest), 1 mM NAPDH, 3.3 mM MgCl2 and 100 mM potassium phosphate buffer (pH 7.4). The production of the metabolite of each probe substrate was determined after incubation for 10 min at 37° C. Quantitation of the metabolite peak area ratio against an internal standard (tolbutamide) was determined by LC/MS/MS analysis following acetonitrile treatment of the incubations.
as §1, with “[…],” for “μm,”
as §2, with “maxima.” for “maxima and with 5 μM ketoconazole were defined as the minima”
as §3, §4, §5

[3] = target: T2, CYP2C19 (Homo sapiens, UniProt P33261); test: Cocktail CYP assay, mephenytoin 4'-hydroxylation; format: in vitro ADME; conditions: human liver microsomes, 30 μM mephenytoin; test concentrations up to 10 μM
T2 construct: 0.1 mg/mL protein human liver microsomes (BD Gentest); tissue BD Gentest; host or cells: human liver microsomes
Experimental: as §6, §7
as §1, with “[…],” for “μm,”
as §2, with “maxima.” for “maxima and with 5 μM ketoconazole were defined as the minima”
as §3, §4, §5

[4] = target: T3, CYP2D6 (Homo sapiens, UniProt P10635); test: Cocktail CYP assay, dextromethorphan O-demethylation; format: in vitro ADME; conditions: human liver microsomes, 5 μM dextromethorphan; test concentrations up to 10 μM
T3 construct: 0.1 mg/mL protein human liver microsomes (BD Gentest); tissue BD Gentest; host or cells: human liver microsomes
Experimental: as §6, §7
as §1, with “[…],” for “μm,”
as §2, with “maxima.” for “maxima and with 5 μM ketoconazole were defined as the minima”
as §3, §4, §5

T1 sequence (P11712 whole entry): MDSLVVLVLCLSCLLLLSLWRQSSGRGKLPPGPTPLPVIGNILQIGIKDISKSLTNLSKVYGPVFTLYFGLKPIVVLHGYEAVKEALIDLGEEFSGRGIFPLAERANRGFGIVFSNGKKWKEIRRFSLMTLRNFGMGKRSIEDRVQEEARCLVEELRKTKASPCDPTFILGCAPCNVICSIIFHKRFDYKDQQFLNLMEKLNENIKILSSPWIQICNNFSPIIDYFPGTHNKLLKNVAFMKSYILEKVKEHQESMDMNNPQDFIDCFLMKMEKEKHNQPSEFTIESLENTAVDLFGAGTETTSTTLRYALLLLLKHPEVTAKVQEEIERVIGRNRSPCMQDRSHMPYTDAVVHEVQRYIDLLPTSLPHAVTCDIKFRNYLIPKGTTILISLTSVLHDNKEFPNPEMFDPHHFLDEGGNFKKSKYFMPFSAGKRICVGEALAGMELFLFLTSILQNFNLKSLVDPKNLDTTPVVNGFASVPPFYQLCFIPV
T3 sequence (P10635 whole entry): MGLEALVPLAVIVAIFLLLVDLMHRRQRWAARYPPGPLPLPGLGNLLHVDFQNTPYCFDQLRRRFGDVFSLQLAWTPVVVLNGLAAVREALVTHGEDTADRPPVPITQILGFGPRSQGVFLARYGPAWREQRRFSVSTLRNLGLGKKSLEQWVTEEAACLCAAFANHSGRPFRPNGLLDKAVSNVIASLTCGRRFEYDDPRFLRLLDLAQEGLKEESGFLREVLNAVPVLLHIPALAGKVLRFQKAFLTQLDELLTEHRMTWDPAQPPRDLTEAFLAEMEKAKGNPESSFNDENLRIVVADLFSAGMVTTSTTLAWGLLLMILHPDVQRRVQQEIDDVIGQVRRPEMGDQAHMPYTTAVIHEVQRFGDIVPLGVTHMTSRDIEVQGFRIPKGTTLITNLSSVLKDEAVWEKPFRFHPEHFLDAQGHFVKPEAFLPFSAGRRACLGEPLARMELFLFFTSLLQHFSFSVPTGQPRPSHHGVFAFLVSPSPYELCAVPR
Sequence of CYP3A4 (P08684 2-503): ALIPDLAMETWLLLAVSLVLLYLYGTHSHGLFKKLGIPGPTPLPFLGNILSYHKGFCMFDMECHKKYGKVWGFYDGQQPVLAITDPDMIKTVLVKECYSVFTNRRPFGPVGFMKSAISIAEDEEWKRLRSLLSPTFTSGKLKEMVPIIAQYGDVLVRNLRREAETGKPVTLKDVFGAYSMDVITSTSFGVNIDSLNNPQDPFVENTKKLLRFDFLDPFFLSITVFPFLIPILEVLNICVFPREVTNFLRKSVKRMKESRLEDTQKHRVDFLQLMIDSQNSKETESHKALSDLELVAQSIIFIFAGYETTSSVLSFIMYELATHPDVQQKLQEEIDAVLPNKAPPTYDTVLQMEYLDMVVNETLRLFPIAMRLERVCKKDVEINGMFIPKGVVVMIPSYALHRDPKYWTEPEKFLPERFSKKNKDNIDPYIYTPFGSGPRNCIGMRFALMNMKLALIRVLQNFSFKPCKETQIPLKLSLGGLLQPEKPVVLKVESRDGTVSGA
T2 sequence (P33261 whole entry): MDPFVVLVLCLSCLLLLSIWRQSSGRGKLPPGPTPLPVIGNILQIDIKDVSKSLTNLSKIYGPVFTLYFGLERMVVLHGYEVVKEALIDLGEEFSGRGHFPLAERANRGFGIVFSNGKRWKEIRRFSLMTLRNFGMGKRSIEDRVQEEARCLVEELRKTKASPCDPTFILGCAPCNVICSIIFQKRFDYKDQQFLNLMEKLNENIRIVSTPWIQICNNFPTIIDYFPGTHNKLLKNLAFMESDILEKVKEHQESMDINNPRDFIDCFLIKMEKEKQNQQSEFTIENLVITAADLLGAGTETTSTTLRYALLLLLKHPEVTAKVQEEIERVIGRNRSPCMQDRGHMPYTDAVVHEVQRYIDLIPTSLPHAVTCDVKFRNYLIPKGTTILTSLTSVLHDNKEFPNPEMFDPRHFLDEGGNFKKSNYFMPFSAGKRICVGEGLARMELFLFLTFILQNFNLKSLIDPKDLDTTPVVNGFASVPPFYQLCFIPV

| IC50 at 8 min [1] [µM] | pIC50 [2] | pIC50 [3] | pIC50 [4] | SMILES |
| --- | --- | --- | --- | --- |
| 0.0011 | 5.64 | 5.66 | 5.30 | C[C@H](c1ccc(F)cc1)n1cncc1CN1CCN(S(=O)(=O)c2cnc(N3CCN4C[C@H](O)C[C@H]4C3=O)s2)CC1 [Compound 18] |
| 0.0017 | 5.85 | 5.10 | 5.15 | C[C@H](c1ccc(F)cc1)n1cncc1CN1CCN(S(=O)(=O)c2cnc(N3CCN4C[C@H](O)CC[C@H]4C3)s2)CC1 [Compound 19] |
| 0.0019 | 5.94 | ≤ 5.00 | 5.21 | C[C@H](c1ccc(F)cc1)n1cncc1CN1CCN(S(=O)(=O)c2cnc(N3C[C@@H]4C[C@@H](O)CN4C[C@@H]3C)s2)CC1 [Compound 21] |
| 0.0016 | 5.30 | < 5.00 | 5.33 | CC1CN(c2ncc(S(=O)(=O)N3CCN(Cc4cncn4[C@H](C)c4ccc(F)cc4)CC3)s2)C[C@@H]2C[C@@H](O)CN12 (stereo partly drawn) [Compound 23] |
| 0.0019 | 5.87 | < 5.00 | 5.49 | C[C@H](c1ccc(F)cc1)n1cncc1CN1CCN(S(=O)(=O)c2cnc(N3CCN4C[C@H](O)CC4(C)C3)s2)CC1 (stereo partly drawn) [Compound 24] |
| 0.0026 | 5.75 | 5.19 | 5.41 | C[C@H](c1ccc(F)cc1)n1cncc1CN1CCN(S(=O)(=O)c2cnc(N3CCN4CCC(O)[C@H]4C3)s2)CC1 (stereo partly drawn) [Compound 27] |

Second part, the compound before the results:

| SMILES | IC50 at 8 min [1] [µM] | pIC50 [2] | pIC50 [3] | pIC50 [4] |
| --- | --- | --- | --- | --- |
| C[C@H](c1ccc(F)cc1)n1cncc1CN1CCN(S(=O)(=O)c2cnc(N3CC[C@@H](N4CCOCC4)[C@H](F)C3)s2)CC1 [Compound 20] | 0.0041 | 5.35 | 5.39 | < 5.00 |
| C[C@H](c1ccc(F)cc1)n1cncc1CN1CCN(S(=O)(=O)c2cnc(N3CCC(N)(CO)CC3)s2)CC1 [Compound 25] | 0.0019 | 5.01 | < 5.00 | 5.08 |
| C[C@H](c1ccc(F)cc1)n1cncc1CN1CCN(S(=O)(=O)c2cnc(N3CCN4C(=O)OC[C@H]4C3)s2)CC1 [Compound 26] | 0.0015 | 5.37 | 5.14 | < 5.00 |
| C[C@H](c1ccc(F)cc1)n1cncc1CN1CCN(S(=O)(=O)c2ccc(N3CCNCC3)cn2)CC1 [Compound 28] | 0.0044 | 5.18 | 5.43 | 5.19 |
| C[C@H](c1ccc(F)cc1)n1cncc1CN1CCN(S(=O)(=O)c2cncc(N3CCNCC3)c2)CC1 [Compound 29] | 0.0029 | < 5.00 | < 5.00 | < 5.00 |
| C[C@H](c1ccc(F)cc1)n1cncc1CN1CCN(S(=O)(=O)c2cnc(N3CCNCC3)cn2)CC1 [Compound 30] | 0.0036 | < 5.00 | < 5.00 | 5.31 |
| Cc1ccc(C2(n3cncc3CN3CCN(S(=O)(=O)c4cnc(N5CCN(C)CC5)s4)CC3)CC2)nc1 [Compound 31] | 0.0044 | < 5.00 | < 5.00 | < 5.00 |
| CN1CCN(c2ncc(S(=O)(=O)N3CCN(Cc4cncn4CCOc4ccc(Cl)cc4)CC3)s2)CC1 [Compound 32] | 0.0012 | 5.81 | 5.46 | 5.89 |
| CN1CCN(c2ncc(S(=O)(=O)N3CCN(Cc4cncn4CCOc4ccc(F)cn4)CC3)s2)CC1 [Compound 33] | 0.0023 | < 5.00 | 5.12 | 5.32 |
